Results reported in patent US20160331853A1, “COMPOSITIONS FOR RADIOTHERAPY AND USES THEREOF” (The Trustees of Columbia University in the City of New York, priority 2014, published 2016).
“And” between values parts separate entries of the source, which are not always exact repeats. Identical values can stand only once. Counter-ions that a name gives are not always drawn. Like-named read-outs stand apart in the source and are kept apart here.

Key:
NCI-28H cells [1] = details: 72 hrs
[2] = Example 9: binding of bleomycin to talc, fluorescent microscopy (DAPI filter); details: 50 mg talc, 1 or 100 μg/mL bleomycin
Method: 1. Reconstitute bleomycin by adding 100 μL of water to 1 mg of bleomycin. Get the concentration to 10 mg/mL and mix, keeping the drug at 4° C.
9. Incubate overnight at 4° C., constantly mixing it.
3. Wash tubes 3× with 1 mL of water.
4. After last wash, complete, remove the water and resuspend the pellet in Vectashield mounting medium for fluorescence.
6. Check slides under fluorescent microscope under DAPI filter.

[3] = flow cytometry, after multiple PBS washes
NCI-28H cells [4] = assay: Example 21: cytotoxicity (MTS) assay, NCI-28H cells treated with doxorubicin, cisplatin, paclitaxel, talc alone, talc bound to each drug; format: cell-based; details: for AVERAGE reading: cells + DOX: NCI-28H, 72 hrs; for Average reading: cells + cisplatin: absorbance 490 nm; for Average reading: cells + cisplatin / % survival from untreated cells (cells + cisplatin): NCI-28H cells
NCI-28H cells [5] = assay: Example 22: cytotoxicity (MTS) assay, NCI-28H cells treated with carboplatin, mitomycin, gemcitabine, talc alone, talc bound to each drug; details: for % survival from untreated cells: cells + drug, carboplatin / Average reading: cells + drug, carboplatin / Average absorbance reading: cells + drug, gemcitabine / % survival cells: cells + drug only: NCI-28H cells; for Average reading: cells + drug, carboplatin: absorbance 490 nm; for Average absorbance reading: cells + drug, gemcitabine: 490 nm, Table 79; for % survival cells: cells + drug only: Table 80
[6] = Example 2: Avidin and Avidin-Rhodamine binding to talc after PBS and 0.2% EDTA washes, fluorescent microscope; details: 100 mg talc; 3x PBS, 3x 0.2% EDTA washes
Method: The resulting mixtures were then washed with PBS and then washed with 0.2% EDTA.
3. Mix 1 mL of 100 μM of Avidin with 500 μL of 30.3 μM of Avidin Rhodamine (keep lights off).
4. […] Mix well to bring the dry talc powder to evenly distributed reaction solution.
8. Place tubes on the rotator and incubate overnight at 4° C.
5. Continue to wash all “b” labeled tubes with 0.2% EDTA. Wash 3× in 0.5 mL EDTA.
7. View slides under fluorescent microscope.

[7] = Example 1: binding of Anti-Avidin FITC and Biotin Rhodamine to talc, fluorescence microscopy; details: 30 mg talc; FITC and Rhodamine filters
Excerpt: This combinant nanoparticle was observed under microscopy for efficiency and efficacy. 1. […] 4. […] 5. […] 3. […] 4. […] 7. […] PBS+0.05% Tween20). 9. Analyze under microscope using FITC filter and Rhodamine filter.

[8] = Example 25: non-specific binding of Biotin-Rhodamine to talc after washing with buffers of different pH, fluorescent assay 496/520 nm
Method: Plan: incubate talc with Biotin Rhodamine. Make washings using different pH buffers: PBS, TBS (pH 8.0), Citrate buffer (pH 4.8). Run fluorescent assay. 1. […] Label tubes as #1, #2, #3, #4. 2. Add to each tube 500 μL 1×PBS. 3. […] 4. Mix well, incubate all tubes for 1 hr at 4° C., rotator. Protect from light. 5. […] (Centrifuge speed −3200 rpm for 3 min) 7. Add to all tubes 200 μL PBS, mix well. 8. […] 9. Run fluorescent assay using settings excitation/emission as 496 nm/520 nm.

For Bleomycin sulfate, the “% survival NCI-28H cells after treatment with BLEOMYCIN” value (shortened to “% survival NCI-28H cells”) (NCI-28H cells [1]; Bleomycin 0.004 ug/ml) was 92.41%, the “% survival NCI-28H cells” value (NCI-28H cells [1]; Bleomycin 0.015 ug/ml) was 88.25% and the “% survival NCI-28H cells” value (NCI-28H cells [1]; Bleomycin 0.06 ug/ml) was 93.38%. The “% survival NCI-28H cells” value (NCI-28H cells [1]; Bleomycin 0.24 ug/ml) was 91.86%, the “% survival NCI-28H cells” value (NCI-28H cells [1]; Bleomycin 0.97 ug/ml) was 86.19% and the “% survival NCI-28H cells” value (NCI-28H cells [1]; Bleomycin 3.9 ug/ml) was 71.05%. For the same molecule, the “% survival NCI-28H cells” value (NCI-28H cells [1]; Bleomycin 15.6 ug/ml) was 74.60%, the “% survival NCI-28H cells” value (NCI-28H cells [1]; Bleomycin 62.5 ug/ml) was 68.76% and the “% survival NCI-28H cells” value (NCI-28H cells [1]; Bleomycin 250 ug/ml) was 47.13%. The “% survival NCI-28H cells” value (NCI-28H cells [1]; Bleomycin 1000 ug/ml) was 24.92%, the “fluorescent imaging of talc incubated with bleomycin” value [2] was “no difference in fluorescent imaging between negative control and talc incubated with bleomycin” and the “binding of bleomycin to talc” value [3] was “binds to talc and remains on surface of talc even following multiple PBS washes”.

With COc1cccc2c1C(=O)c1c(O)c3c(c(O)c1C2=O)C[C@@](O)(C(=O)CO)C[C@@H]3O[C@H]1C[C@H](N)[C@H](O)[C@H](C)O1 [DOX, Doxorubicin Hydrochloride] the “AVERAGE reading: cells + DOX” value (NCI-28H cells [4]; DOX 0.2 μM) was 0.89, the “AVERAGE reading: cells + DOX” value (NCI-28H cells [4]; DOX 1 μM) was 0.67 and the “AVERAGE reading: cells + DOX” value (NCI-28H cells [4]; DOX 5 μM) was 0.63.

For N.N.O=C([O-])C1(C(=O)[O-])CCC1.[Pt+2] [carboplatin], the “% survival from untreated cells: cells + drug, carboplatin” value (“% survival … carboplatin” below) (NCI-28H cells [5]; carboplatin 0.006 μM) was 90.84% and 94.28%, the “Average reading: cells + drug, carboplatin” value (shortened to “Average reading: cells + drug”) (NCI-28H cells [5]; carboplatin 0.006 μM) was 1.504 and the “% survival … carboplatin” value (NCI-28H cells [5]; carboplatin 0.8 μM) was 85.98% and 87.53%. The “Average reading: cells + drug” value (NCI-28H cells [5]; carboplatin 0.8 μM) was 1.4238, the “% survival … carboplatin” value (NCI-28H cells [5]; carboplatin 4 μM) was 96.93% and 93.62% and the “Average reading: cells + drug” value (NCI-28H cells [5]; carboplatin 4 μM) was 1.605. For the same molecule, the “% survival … carboplatin” value (NCI-28H cells [5]; carboplatin 20 μM) was 104.81% and 99.20%, the “Average reading: cells + drug” value (NCI-28H cells [5]; carboplatin 20 μM) was 1.7355 and the “% survival … carboplatin” value (NCI-28H cells [5]; carboplatin 100 μM) was 83.82% and 79.53%. The “Average reading: cells + drug” value (NCI-28H cells [5]; carboplatin 100 μM) was 1.388, the “% survival … carboplatin” value (NCI-28H cells [5]; carboplatin 500 μM) was 37.38% and 35.14% and the “Average reading: cells + drug” value (NCI-28H cells [5]; carboplatin 500 μM) was 0.6189.

For “Avidin-Rhodamine: Rhodamine Conjugated Avidin from Rockland [reference compound]”, the “binding to talc after washing” value [6] was “remained bound to talc despite multiple washes”.

For N.N.[Cl][Pt][Cl] [cisplatin, Cisplatin], the “Average reading: cells + cisplatin” value (NCI-28H cells [4]; Cisplatin 0.0013 μM) was 1.37, the “Average reading: cells + cisplatin” value (NCI-28H cells [4]; Cisplatin 0.0064 μM) was 1.19 and the “Average reading: cells + cisplatin” value (NCI-28H cells [4]; Cisplatin 0.8 μM) was 1.23. For the same molecule, the “Average reading: cells + cisplatin” value (NCI-28H cells [4]; Cisplatin 4 μM) was 1.18, the “Average reading: cells + cisplatin” value (NCI-28H cells [4]; Cisplatin 20 μM) was 0.48 and the “Average reading: cells + cisplatin” value (NCI-28H cells [4]; Cisplatin 100 μM) was 0.59. For the same molecule, the “% survival from untreated cells (cells + cisplatin)” value (shortened to “% survival … (cells + cisplatin)”) (NCI-28H cells [4]; cisplatin 0.0013 (μM per Table 63)) was 91.07%, the “% survival … (cells + cisplatin)” value (NCI-28H cells [4]; cisplatin 0.0064 (μM per Table 63)) was 79.21% and the “% survival … (cells + cisplatin)” value (NCI-28H cells [4]; cisplatin 0.032 (μM per Table 63)) was 76.66%. For the same molecule, the “% survival … (cells + cisplatin)” value (NCI-28H cells [4]; cisplatin 0.16 (μM per Table 63)) was 79.74%, the “% survival … (cells + cisplatin)” value (NCI-28H cells [4]; cisplatin 0.8 (μM per Table 63)) was 82.09% and the “% survival … (cells + cisplatin)” value (NCI-28H cells [4]; cisplatin 4 (μM per Table 63)) was 78.41%. The “% survival … (cells + cisplatin)” value (NCI-28H cells [4]; cisplatin 20 (μM per Table 63)) was 31.99% and the “% survival … (cells + cisplatin)” value (NCI-28H cells [4]; cisplatin 100 (μM per Table 63)) was 39.35%.

With Nc1ccn([C@@H]2O[C@H](CO)[C@@H](O)C2(F)F)c(=O)n1 [gemcitabine, Gemcitabine, reference compound] the “cytotoxicity to NCI-28H cells, conclusion” value (NCI-28H cells [5]) was “clear cytotoxic effect”, the “Average absorbance reading: cells + drug, gemcitabine” value (“Average absorbance reading” below) (NCI-28H cells [5]; Gemcitabine 0.0026 uM) was 2.034 and the “% survival cells: cells + drug only” value (NCI-28H cells [5]; Gemcitabine 0.0026 uM) was 114.61%. The “Average absorbance reading” value (NCI-28H cells [5]; Gemcitabine 0.013 uM) was 1.914, the “% survival cells: cells + drug only” value (NCI-28H cells [5]; Gemcitabine 0.013 uM) was 107.85% and the “Average absorbance reading” value (NCI-28H cells [5]; Gemcitabine 0.064 uM) was 1.43. For the same molecule, the “% survival cells: cells + drug only” value (NCI-28H cells [5]; Gemcitabine 0.064 uM) was 80.60%, the “Average absorbance reading” value (NCI-28H cells [5]; Gemcitabine 8 uM) was 1.004 and the “% survival cells: cells + drug only” value (NCI-28H cells [5]; Gemcitabine 8 uM) was 56.58%. The “Average absorbance reading” value (NCI-28H cells [5]; Gemcitabine 40 uM) was 1.0663, the “% survival cells: cells + drug only” value (NCI-28H cells [5]; Gemcitabine 40 uM) was 60.09% and the “Average absorbance reading” value (NCI-28H cells [5]; Gemcitabine 200 uM) was 0.9352. For the same molecule, the “% survival cells: cells + drug only” value (NCI-28H cells [5]; Gemcitabine 200 uM) was 52.70%.

For Biotin Rhodamine 110, the “binding to talc, microscopy” value [7] was “binding to talc”, the “effect of pH of washing buffers on binding to talc” value ([8]; pH 4.8-8.0) was “pH does not affect the binding” and the “Average fluorescent signal (Rhodamine 110)” value (“Average fluorescent signal” below) ([8]; talc/Biotin washed with Citrate buffer, pH 4.8) was 14027.61. The “Average fluorescent signal” value ([8]; talc/Biotin washed with PBS) was 13760.41 and the “Average fluorescent signal” value ([8]; talc/Biotin washed with TBS, pH 8.0) was 12868.68.
